The target of experiment [1] is human recombinant Aurora A (Homo sapiens (Human), UniProt O14965). Nature of the experiment: Aurora A Kinase Biochemical Assay (ADP-Glo). The conditions noted are these: ratio of Aurora A IC50 to PLK4 IC50 (selectivity). On the procedure:
(§1) Activity of human recombinant Aurora A (ThermoFisher, cat #PR5935A) was measured by quantification of adenosine diphosphate (ADP) using the ADP-Glo Kinase Assay Kit (Promega, cat #V9102). […] 5 µL of 5.0 nM Aurora A in assay buffer (50 mM HEPES, pH 7.5, 0.01% Brij-35, 0.01% BSA, 10 mM MgCl2, 1 mM EGTA, 1 mM DTT) was added to the plates. Test compounds and Aurora A were incubated for 15 minutes at room temperature (RT). […] Reactions were stopped and the remaining ATP depleted by adding 10uL of ADP-Glo reagent (Promega, cat#V912B) and incubating for 40 minutes at RT. The simultaneous conversion of the remaining ADP to ATP and measurement of the newly synthesized ATP was achieved by addition of 20 µL Kinase Detection reagent (Promega, cat #V914B), incubation for 30 min at RT, and luminescence detection using the EnVision plate reader (PerkinElmer). […] The IC50 values reported in Table 2 were determined using four parameter non-linear regression curve fit.
For orientation: ADP-Glo first removes unused ATP, then detects ADP through luciferase.

The target of experiment [2] is human recombinant Aurora B (Homo sapiens (Human), UniProt Q96GD4). Nature of the experiment: Aurora B Kinase Biochemical Assay (ADP-Glo). The conditions noted are these: ratio of Aurora B IC50 to PLK4 IC50 (selectivity). As for the experimental part:
as §1, with “Aurora B” for “Aurora A”, “cat #PR9210B)” for “cat #PR5935A)”, “of 20” for “of 5.0”

In another experiment the target is human recombinant PLK4 (Homo sapiens (Human), UniProt O00444). The experiment is described as follows: PLK4 Biochemical Assay (ADP-Glo). The settings on record: 0.5 nM PLK4, 8.0 µM ATP, 4.7 µM MBP, 6 hours at RT. As for the experimental part: as §1, with “recombinant PLK4” for “recombinant Aurora A”, “cat #PV6396)” for “cat #PR5935A)”, “of 1.0” for “of 5.0”, “nM PLK4 protein” for “nM Aurora A”, “and PLK4” for “and Aurora A”, “adding 10 µL” for “adding 10uL”
Sequence of human recombinant PLK4 (O00444 whole entry): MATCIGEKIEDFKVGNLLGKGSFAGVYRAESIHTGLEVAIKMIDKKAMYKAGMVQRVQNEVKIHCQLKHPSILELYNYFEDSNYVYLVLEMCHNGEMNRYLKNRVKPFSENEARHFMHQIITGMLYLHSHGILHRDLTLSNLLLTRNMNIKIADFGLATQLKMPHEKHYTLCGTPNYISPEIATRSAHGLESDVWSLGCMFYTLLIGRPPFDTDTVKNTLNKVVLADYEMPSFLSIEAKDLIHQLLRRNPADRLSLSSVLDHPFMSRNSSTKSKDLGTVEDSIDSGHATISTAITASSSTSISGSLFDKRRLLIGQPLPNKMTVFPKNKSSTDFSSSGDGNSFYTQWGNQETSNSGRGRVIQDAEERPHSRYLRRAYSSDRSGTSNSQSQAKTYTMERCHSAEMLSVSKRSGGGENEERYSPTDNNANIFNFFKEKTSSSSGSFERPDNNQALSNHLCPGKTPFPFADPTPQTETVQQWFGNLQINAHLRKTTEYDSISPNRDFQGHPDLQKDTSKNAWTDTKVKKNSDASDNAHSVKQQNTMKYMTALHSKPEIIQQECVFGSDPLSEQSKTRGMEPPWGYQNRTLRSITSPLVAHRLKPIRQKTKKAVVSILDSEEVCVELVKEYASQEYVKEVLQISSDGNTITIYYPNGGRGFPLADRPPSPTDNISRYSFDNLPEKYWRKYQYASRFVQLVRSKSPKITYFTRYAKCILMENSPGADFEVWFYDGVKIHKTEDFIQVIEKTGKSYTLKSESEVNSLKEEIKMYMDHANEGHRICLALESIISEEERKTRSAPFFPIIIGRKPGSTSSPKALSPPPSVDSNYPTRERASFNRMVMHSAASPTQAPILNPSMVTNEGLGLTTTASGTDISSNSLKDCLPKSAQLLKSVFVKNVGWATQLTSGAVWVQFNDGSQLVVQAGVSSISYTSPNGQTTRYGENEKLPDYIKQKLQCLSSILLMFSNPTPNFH

Sequence of human recombinant Aurora A (O14965 whole entry): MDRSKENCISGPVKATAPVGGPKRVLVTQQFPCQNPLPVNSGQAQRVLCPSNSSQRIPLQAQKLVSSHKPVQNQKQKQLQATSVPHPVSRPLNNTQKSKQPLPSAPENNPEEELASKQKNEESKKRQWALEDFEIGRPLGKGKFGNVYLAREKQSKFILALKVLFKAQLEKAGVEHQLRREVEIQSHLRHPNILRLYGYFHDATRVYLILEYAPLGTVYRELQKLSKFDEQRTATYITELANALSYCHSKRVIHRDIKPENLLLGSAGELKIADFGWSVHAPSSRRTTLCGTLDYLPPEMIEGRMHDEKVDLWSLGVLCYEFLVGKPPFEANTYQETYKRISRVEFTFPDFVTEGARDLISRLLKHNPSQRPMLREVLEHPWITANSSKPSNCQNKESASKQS
Sequence of human recombinant Aurora B (Q96GD4 whole entry): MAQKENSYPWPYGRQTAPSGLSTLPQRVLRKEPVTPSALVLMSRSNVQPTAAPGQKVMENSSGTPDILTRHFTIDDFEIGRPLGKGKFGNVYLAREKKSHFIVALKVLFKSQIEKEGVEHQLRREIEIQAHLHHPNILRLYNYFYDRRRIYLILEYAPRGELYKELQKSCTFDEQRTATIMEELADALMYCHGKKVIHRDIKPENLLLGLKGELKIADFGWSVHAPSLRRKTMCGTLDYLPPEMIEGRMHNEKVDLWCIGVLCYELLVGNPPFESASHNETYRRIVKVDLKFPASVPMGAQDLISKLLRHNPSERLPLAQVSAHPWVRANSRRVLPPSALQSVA

Broadly, the IC50 is the concentration that inhibits the measured activity by half. Take `COc1ccc2c(c1)[C@]1(C[C@H]1c1ccc3c(Nc4cc(C(C)O)cnc4OC)n[nH]c3c1)C(=O)N2` (mixture of isomers) [Example 271, (1R,2S)-2-(3-{[5-(1-hydroxyethyl)-2-methoxypyridin-3-yl]amino}-1H-indazol-6-yl)-5′-methoxyspiro[cyclopropane-1,3′-indol]-2′(1′H)-one]: the “[Aurora A IC50 (nM)]/[PLK4 IC50 (nM)]” value in experiment [1] is recorded as 825.7199. Besides, the “[Aurora B IC50 (nM)]/[PLK4 IC50 (nM)]” value in experiment [2] came out at 492.8831. In addition, the IC50 at human recombinant PLK4 amounted to 6.04 nM. Take `COc1ccc2c(c1)[C@]1(C[C@H]1c1ccc3c(Nc4ncncc4OC)n[nH]c3c1)C(=O)N2` (racemic) [Example 1, racemic-5′-Methoxy-2-{3-[(5-methoxypyrimidin-4-yl)amino]-1H-indazol-6-yl}spiro[cyclopropane-1,3′-indol]-2′(1′H)-one]: the IC50 at human recombinant PLK4 amounted to 3.5 nM. `COc1ccc2c(c1)[C@]1(C[C@H]1c1ccc3c(Nc4ncncc4C)n[nH]c3c1)C(=O)N2` (racemic) [Example 2, racemic-5′-Methoxy-2-{3-[(5-methylpyrimidin-4-yl)amino]-1H-indazol-6-yl)spiro[cydopropane-1,3′-indol]-2′(1′H)-one]: the “[Aurora A IC50 (nM)]/[PLK4 IC50 (nM)]” value in experiment [1] stood at 318.03. For the same compound, the “[Aurora B IC50 (nM)]/[PLK4 IC50 (nM)]” value in experiment [2] worked out at 15.6544. Moreover, the IC50 at human recombinant PLK4 was determined as 29.3 nM. Regarding `COc1ccc2c(c1)[C@]1(C[C@H]1c1ccc3c(Nc4ncncc4Cl)n[nH]c3c1)C(=O)N2` (racemic) [Example 3, racemic-2-{3-[(5-Chloropyrimidin-4-yl)amino]-1H-indazol-6-yl}-5′-methoxyspiro[cydopropane-13′-indol]-2′(1′H)-one], the IC50 at human recombinant PLK4 was determined as 9.95 nM. For the compound `COc1ccc2c(c1)[C@]1(C[C@H]1c1ccc3c(Nc4nccc5c4OC[C@H]5CO)n[nH]c3c1)C(=O)N2` (single isomer, unassigned) [Example 34], in experiment [1], the “[Aurora A IC50 (nM)]/[PLK4 IC50 (nM)]” value worked out at 893.3126. The “[Aurora B IC50 (nM)]/[PLK4 IC50 (nM)]” value in experiment [2] is 19.96. For the same compound, the IC50 on human recombinant PLK4 came to 3.21 nM. For `COc1ccc2c(c1)[C@]1(C[C@H]1c1ccc3c(Nc4nc(C5CCOC5)ncc4OC)n[nH]c3c1)C(=O)N2` (single isomer, unassigned) [Example 200], in that order: 906.0197, 523.3415 and 3.26 nM. For `COc1ccc2c(c1)[C@]1(C[C@H]1c1ccc3c(Nc4nc(C)nc5c4C(C)SC5)n[nH]c3c1)C(=O)N2` (single isomer, unassigned) [Example 211], in that order: 531.9935, 218.4107 and 8.66 nM.

On to `COc1ccc2c(c1)[C@]1(C[C@H]1c1ccc3c(Nc4cccc5c4OCC5O)n[nH]c3c1)C(=O)N2` (stereo in doubt) [Example 27, 2-{3-[(3-hydroxy-2,3-dihydro-1-benzofuran-7-yl)amino]-1H-indazol-6-yl)-5′-methoxyspiro[cyclopropane-1,3′-indol]-2′(1′H)-one], for which the IC50 at human recombinant PLK4 is 2.08 nM. With `COc1ccc2c(c1)[C@]1(C[C@H]1c1ccc3c(Nc4cccc5c4OC[C@H]5O)n[nH]c3c1)C(=O)N2` (stereo in doubt) [Example 28], at human recombinant PLK4, the IC50 was determined as 0.375 nM. Regarding `COc1ccc2c(c1)[C@]1(C[C@H]1c1ccc3c(Nc4ncncc4OC)n[nH]c3c1)C(=O)N2` [Example 4, (1R,2S)-5′-Methoxy-2-{3-[(5-methoxypyrimidin-4-yl)amino]-1H-indazol-6-yl}spiro[cyclopropane-1,3′-indol]-2′(1′H)-one], the “[Aurora A IC50 (nM)]/[PLK4 IC50 (nM)]” value in experiment [1] is on record as 465.4867. Further, in experiment [2], the “[Aurora B IC50 (nM)]/[PLK4 IC50 (nM)]” value was 11.45. Also, at human recombinant PLK4, the IC50 turned out to be 3.96 nM. `CCOc1cncnc1Nc1n[nH]c2cc([C@@H]3C[C@@]34C(=O)Nc3ccc(OC)cc34)ccc12` [Example 5, (1R,2S)-2-[3-[(5-ethoxypyrimidin-4-yl)amino]-1H-indazol-6-yl]-5′-methoxy-spiro[cyclopropane-1,3′-indoline]-2′-one]: on human recombinant PLK4, the IC50 amounted to 2.18 nM. Regarding `COc1ccc2c(c1)[C@]1(C[C@H]1c1ccc3c(Nc4ncncc4C4CC4)n[nH]c3c1)C(=O)N2` [Example 6, (1R,2S)-2-{3-[(5-cyclopropylpyrimidin-4-yl)amino]-1H-indazol-6-yl}-5′-methoxyspiro[cyclopropane-1,3′-indol]-2′(1′H)-one], the IC50 on human recombinant PLK4 is 18.2 nM. As for `COc1ccc2c(c1)[C@]1(C[C@H]1c1ccc3c(Nc4ncncc4Cl)n[nH]c3c1)C(=O)N2` [Example 7], the “[Aurora A IC50 (nM)]/[PLK4 IC50 (nM)]” value in experiment [1] is recorded as 693.5732. In addition, in experiment [2], the “[Aurora B IC50 (nM)]/[PLK4 IC50 (nM)]” value is given as 47.27. Besides, the IC50 on human recombinant PLK4 worked out at 4.56 nM. On the same counts, the results for `COc1ccc2c(c1)[C@@]1(C[C@@H]1c1ccc3c(Nc4ncncc4OC)n[nH]c3c1)C(=O)N2` [Example 8, (IS,2R)-5′-Methoxy-2-{3-[(5-methoxypyrimidin-4-yl)amino]-1H-indazol-6-yl}spiro[cyclopropane-1,3′-indol]-2′(1′H)-one] are 17.61, 32.99 and 492 nM. Consider `COc1ccc2c(c1)[C@]1(C[C@H]1c1ccc3c(Nc4ncnc5c4CCC5)n[nH]c3c1)C(=O)N2` [Example 15, (1R,2S)-2-{3-[(6,7-dihydro-5H-cyclopenta[d]pyrimidin-4-yl)amino]-1H-indazol-6-yl}-5′-methoxyspiro[cyclopropane-1,3′-indol]-2′(1′H)-one], for which the IC50 on human recombinant PLK4 worked out at 45.7 nM. On the same count and under the same terms, the value for `COc1ccc2c(c1)[C@]1(C[C@H]1c1ccc3c(Nc4cnccc4OC)n[nH]c3c1)C(=O)N2` [Example 18] was 22.9 nM; that for `COc1ccc2c(c1)[C@]1(C[C@H]1c1ccc3c(Nc4ccncc4OC)n[nH]c3c1)C(=O)N2` [Example 19, (1R,2S)-5′-methoxy-2-{3-[(3-methoxypyridin-4-yl)amino]-1H-indazol-6-yl}spiro[cyclopropane-1,3′-indol]-2′(1′H)-one] was 24.8 nM; that for `COc1ccc2c(c1)[C@]1(C[C@H]1c1ccc3c(Nc4c(C)nn(C)c4C)n[nH]c3c1)C(=O)N2` [Example 21, (1R,2S)-5′-methoxy-2-{3-[(1,3,5-trimethyl-1H-pyrazol-4-yl)amino]-1H-indazol-6-yl)spiro[cyclopropane-1,3′-indol]-2′(1′H)-one] was 41.7 nM.

With `COc1ccc2c(c1)[C@]1(C[C@H]1c1ccc3c(Nc4ncncc4C(F)(F)F)n[nH]c3c1)C(=O)N2` [Example 22, (1R,2S)-5′-methoxy-2-(3-{[5-(trifluoromethyl)pyrimidin-4-yl]amino}-1H-indazol-6-yl)spiro[cyclopropane-1,3′-indol]-2′(1′H)-one], at human recombinant PLK4, the IC50 turned out to be 39.8 nM. As for `COc1ccc2c(c1)[C@]1(C[C@H]1c1ccc3c(Nc4cccnc4OC)n[nH]c3c1)C(=O)N2` [Example 24], at human recombinant PLK4, the IC50 was determined as 2.25 nM. On the same count and under the same terms, the figure for `COc1ccc2c(c1)[C@]1(C[C@H]1c1ccc3c(Nc4cccc5ccoc45)n[nH]c3c1)C(=O)N2` [Example 26] is 3.85 nM. The same measure, in the same setting: the value for `COc1ccc2c(c1)[C@]1(C[C@H]1c1ccc3c(Nc4cccc5c4OC[C@@H]5O)n[nH]c3c1)C(=O)N2` [Example 29, (1R,2S)-2-(3-{[(3R)-3-hydroxy-2,3-dihydro-1-benzofuran-7-yl]amino)-1H-indazol-6-yl)-5′-methoxyspiro[cyclopropane-1,3′-indol]-2′(1′H)-one] was 5.97 nM.

The values are drawn from patent publication US20230365537A1, “POLO LIKE KINASE 4 INHIBITORS” (ORIC Pharmaceuticals, Inc., priority 2021, published 2023).
